Marks after values point to notes of the source that are not given here.
Legend:
[1] = tested on: aging model mice induced by D-galactose; assay: Antioxidant effects in subacute aging model mice induced by D-galactose (serum SOD by ELISA, liver MDA by colorimetry); assay type: in vivo, ICR mice; conditions: 500 mg/kg by gavage for 6 weeks; for Liver MDA / Serum SOD: 150 mg/kg D-galactose s.c., 24 hours after last administration, x ± s, 10 mice per group; for Liver MDA: 10% liver homogenate; for liver MDA content compared with the model group / serum SOD activity compared with the model group: result in words, One-way ANOVA Dunnett test
Description: 1.1 Animals: ICR mice, 6 weeks old, 20-25 g, SPF grade, purchased from Shanghai Slack Experimental Animal Co., Ltd.
1.2 Reagents: D-galactose, purchased from Sigma, USA; malondialdehyde (MDA) kit, purchased from Nanjing Jiancheng Bioengineering Institute; superoxide dismutase (SOD) kit, purchased from Shanghai Aisalai Eliza Biotechnology Co., Ltd.
2.1 Animal grouping and administration: after one week of adaptive feeding, mice were randomly divided into 5 groups, 10 mice each group. The administration group was gavaged with Compounds 1-3, 500 mg/kg per compound. The blank group and aging model group were gavaged with equal volume of normal saline for 6 weeks. At the same time, 150 mg/kg D-galactose was injected subcutaneously into the aging model group and the administration group respectively to establish a subacute aging model of mice. The blank control group was injected with equal volume of normal saline for 6 weeks.
2.2 Sample preparation and index determination: 24 hours after the last administration, blood was collected from the eyeballs of mice; after dislocation for execution, the liver was removed, cleaned and ground at low temperature to prepare 10% tissue homogenate, which was centrifuged at 3500 rpm and 4° C. for 10 min, and supernatant was taken and stored at −20° C. The content of MDA in the liver tissue was determined by colorimetry, and the activity of SOD in serum was determined by ELISA.
2.3 Statistical analysis: the results were expressed as x±s. The results were analyzed by One-way ANOVA Dunnett test using SPSS 20 software.

[2] = Solubility description of the isolated compounds

Compound	Liver MDA [1]	Serum SOD [1]	liver MDA content compared with the model group [1]	serum SOD activity compared with the model group [1]	solubility in chloroform [2]	solubility in water, ethanol and the like [2]
2,6-dihydroxynaphthyl-O-β-D-glucopyranoside [Compound 3]	0.183 ± 0.051^a nmol/mg tissue	103.44 ± 15.75^a U/mL	significantly (P<0.05) lower than that in the model group	significantly (P<0.05) higher than that in the model group	insoluble	soluble
COc1ccc(O)c(O[C@@H]2O[C@H](CO)[C@@H](O)[C@H](O)[C@H]2O)c1 [Compound 1, 2-hydroxyl-5-methoxylphenyl-O-β-D-glucopyranoside]	0.211 ± 0.019^a nmol/mg tissue	94.90 ± 8.07^a U/mL	significantly (P<0.05) decreased	significantly (P<0.05) increased	insoluble	soluble
OC[C@H]1O[C@@H](Oc2ccc3cc(O)ccc3c2O[C@@H]2O[C@H](CO)[C@@H](O)[C@H](O)[C@H]2O)[C@H](O)[C@@H](O)[C@@H]1O [Compound 2, 6-hydroxylnaphthyl-1,2-di-O-β-D-glucopyranoside]	0.198 ± 0.037^a nmol/mg tissue	97.06 ± 10.18^a U/mL	significantly (P<0.05) decreased	significantly (P<0.05) increased	–	–

Reference: US11384109B2, “Method for separating phenolic acid glucoside compounds from Diaphragma juglandis Fructu” (Jiangnan University, priority 2020, dated 2022)
